Measurements: US12729231B2, “Fusion protein having triple activity and use thereof” (SHANGHAI MINWEI BIOTECHNOLOGY CO., LTD, priority 2023, dated 2026)
Numbering of substitutions follows the chain as printed. Names may count otherwise.

Assays:
DIO mice = assay: body weight reduction by multiple subcutaneous injections in DIO mice; assay type: in vivo; conditions: 30 nmol/kg subcutaneous twice a week for 5 weeks, mean of 6 mice
Method: 7-week-old C57BL/6Nju mice were fed with a high-fat diet (of about 20% protein and about 60% fat) for 12 weeks for modeling. Feeding conditions: 12 hours of light and 12 hours of darkness cycle every day, ad libitum feeding, temperature 20-25° C., relative humidity 40-70%, ventilation frequency of 10-15 times/hour. According to body weight, water consumption, and food intake, the mice were randomly divided into groups the day before administration. […] Subcutaneous injection treatment was administered twice a week for 5 consecutive weeks, for a total of 10 administrations. After the administration, the body weight, OGTT, body fat ratio, blood lipids and liver function of the mice were measured. The data are shown as mean±standard deviation, and statistically analyzed by One-Way ANOVA.

[1] = cynomolgus macaques; cited from earlier work

In the case of Tirzepatide, the ALT (DIO mice; DIO mice) is reported as 19.000 U/L, the AST (DIO mice; DIO mice) is reported as 54.683 U/L and the “Blood glucose (fasting)” value (DIO mice; DIO mice) is reported as 7.2 mmol/L. The “LDL-C (plasma low-density lipoprotein cholesterol)” value (DIO mice; DIO mice) was 0.423 mmol/L, the “TC (plasma total cholesterol)” value (DIO mice; DIO mice) was 3.923 mmol/L and the “% Change in weight since inception” value (DIO mice; DIO obese mice) was −22.55%.

B1: natural FGF21: Fibroblast growth factor 21, wild type, SEQ ID NO 1 (protein)
chain: HPIPDSSPLLQFGGQVRQRYLYTDDAQQTEAHLEIREDGTVGGAADQSPESLLQLKALKPGVIQILGVKTSRFLCQRPDGALYGSLHFDPEACSFRELLLEDGYNVYQSEAHGLPLHLPGNKSPHRDPAPRGPARFLPLPGLPPALPEPPGILAPQPPDVGSSDPLSMVGPSQGRSPSYAS
modifications: Wild type FGF21
In the case of B1, the half-life in vivo [1] is given as 2 to 3 h.

B2: FGF21 L98R, P171G, A180E: FGF21 with the L98R, P171G, and A180E mutations, background literature variant (protein, UniProt Q9NSA1 29-209, looked up, variant L98R P171G A180E)
Fibroblast growth factor 21: B1 chain with L98R, P171G, A180E
For B2, the half-life in vivo [1] is given as “about 70 hours”.
